Reference: article PMC10334471, “Tumor-targeted dual-action NSAID-platinum(IV) anticancer prodrugs” (Inorganic Chemistry Frontiers, 2023)

Assays:
[1] = Stability in aqueous buffer pH 7.4 (HPLC); format: physicochemical; settings: 1 mM, 250 mM phosphate buffer pH 7.4, 20 °C, 25 h, HPLC
Protocol: (§1) Phosphate buffer (250 mM, pH 7.4) containing 1 mM platinum compound was incubated at 20 °C, with and without the addition of 10 eq. L-ascorbic acid. […] A gradient of 5–95% over 5 minutes was used. To evaluate the current state of the reaction, the peak area of the parental complex was used.

[2] = Reduction kinetics with 10 eq. ascorbic acid (UHPLC); format: physicochemical; settings: 1 mM, 250 mM phosphate buffer pH 7.4, 20 °C, 10 eq. ascorbic acid
Protocol: as §1

RKO = assay: MTT assay, 72 h, RKO; format: cell-based; settings: 72 h treatment, mean ± SD
Protocol: (§2) All cell cultures were grown at 37 °C in a humidified atmosphere containing 5% CO2. HCT116, RKO and HT-29 cells were cultured in McCoy's 5A Modified Media (Sigma-Aldrich, St. Louis, MO, USA) supplemented with 10% heat-inactivated fetal calf serum (FCS, PAA, Linz, Austria) and 2 mM glutamine (Sigma-Aldrich, St. Louis, MO, USA). The murine (Balb/c) colon cancer cell model CT26 (purchased from American Type Culture Collection, Manassas, VA, USA) were cultured in DMEM/F12 supplemented with 10% fetal calf serum (FCS). SW480 and Caco-2 cells were cultured in MEME media supplemented with 10% and 20% FCS, respectively. All cell culture media and reagents were purchased from Sigma-Aldrich Austria. […] The cells were regularly checked for Mycoplasma contamination.
(§3) Depending on their proliferation rate, cells were seeded at a density of 3500–5000 cells per well in 96-well microtiter plates and allowed to adhere overnight. […] Cell viability was determined using the 3-(4,5-dimethylthiazol-2-yl)-2,5-diphenyltetrazolium bromide (MTT) assay (EZ4U, Biomedia, Vienna, Austria) according to the manufacturer's recommendation. Depending on the metabolic capacity, the cell lines were incubated between one and three hours at 37 °C and subsequently absorbance was measured at 450 nm (620 nm as a reference) with a Tecan Reader infinite® M200Pro (Tecan Group Ltd, Switzerland). Data were analyzed using Graph Pad prism (version 8.0.1) by using the point-to-point function. […] Following, dose–response curves were calculated using the point-to-point function.

CT26 allografts [3] = assay: Oral anticancer activity in CT26 allografts; format: in vivo, Balb/c mice; settings: OxAsaOAc 52.8 mg kg^−1 p.o., five subsequent days over two weeks
Protocol: It is well known that COX-2 is involved in the paracrine signaling between immune cells, resulting in a pro-tumorigenic tumor microenvironment.[10,33] Consequently, we got interested in the impact of the Asa ligand on the anticancer activity of the drugs in vivo. […] As Asa is clinically applied p.o., we tested the efficacy of OxAsaOAc and asplatin in an oral application setting. […] For the therapy experiment, the animals were treated with OxAsaOAc and asplatin for five subsequent days over two weeks.
(§4) All experiments were executed according to the regulation of the Ethics Committee for the Care and Use of Laboratory Animals at the Medical University Vienna. 8–12 weeks old BALB/c were kept in a pathogen-free environment with a 12 h light dark-cycle with ad libitum access to food and water. Every procedure was performed in a laminar airflow under sterile condition. Tumor growth and possible side effects of drug treatment were evaluated by daily recording the tumor size by caliper measurement according to the formula length × width^2/2 and parameters of the animal's overall health conditions.

HCT116/OxR = assay: MTT assay, 72 h, HCT116/OxR (oxaliplatin-resistant); format: cell-based; settings: 72 h treatment, mean ± SD
Protocol: as §2, §3

Caco-2 = assay: MTT assay, 72 h, Caco-2; format: cell-based; settings: Caco-2, MTT, 72 h treatment, mean ± SD
Protocol: as §2, §3

albumin = target: T1, albumin (Bos taurus, UniProt P02769); assay: Albumin binding in fetal calf serum by SEC-ICP-MS; format: in vitro ADME; settings: 100 μM in FCS (150 mM phosphate buffer, pH 7.4), 37 °C, up to 6 h
T1 construct: Fetal calf serum was purchased from Sigma-Aldrich and buffered with 150 mM phosphate pH 7.4; tissue Sigma-Aldrich; host or cells: fetal calf serum
T1 sequence (P02769 25-607): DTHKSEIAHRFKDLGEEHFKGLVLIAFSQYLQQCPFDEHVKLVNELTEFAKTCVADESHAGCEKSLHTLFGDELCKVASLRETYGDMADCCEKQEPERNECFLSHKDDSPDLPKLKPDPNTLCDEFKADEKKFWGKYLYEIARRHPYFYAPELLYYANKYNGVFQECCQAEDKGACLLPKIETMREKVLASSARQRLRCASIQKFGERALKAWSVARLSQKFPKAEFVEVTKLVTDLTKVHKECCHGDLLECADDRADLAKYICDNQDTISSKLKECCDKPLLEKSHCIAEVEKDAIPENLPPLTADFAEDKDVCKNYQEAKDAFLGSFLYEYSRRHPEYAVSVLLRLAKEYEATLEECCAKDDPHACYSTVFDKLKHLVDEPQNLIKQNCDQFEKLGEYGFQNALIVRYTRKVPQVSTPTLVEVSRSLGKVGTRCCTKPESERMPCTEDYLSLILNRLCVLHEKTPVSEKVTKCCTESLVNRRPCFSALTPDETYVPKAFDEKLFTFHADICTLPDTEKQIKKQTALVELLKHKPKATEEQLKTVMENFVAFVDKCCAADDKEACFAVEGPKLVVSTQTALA
Protocol: Fetal calf serum was purchased from Sigma-Aldrich and buffered with 150 mM phosphate pH 7.4 in order to guarantee a stable pH. The platinum(IV) complexes (5 mM) were dissolved in 150 mM phosphate buffer (pH 7.4) and diluted 1 : 50 in the buffered serum to obtain a final concentration of 100 μM. The samples were then incubated in the autosampler at 37 °C and analyzed every 1 h for 6 h. Between each sample a pure water blank was measured. For SEC-ICP-MS measurements an Agilent 1260 Infinity system coupled to an Agilent 7800 ICP-MS equipped with a dynamic reaction cell was used. Oxygen (purity 5.5, Messer Austria GmbH, Gumpoldskirchen, Austria) was used as reaction gas.

[4] = Released salicylic acid in serum of mice after single i.v. administration (UHPLC-MS); settings: for Free salicylic acid in serum, share of administered dose: tumor-free Balb/c mice
Protocol: After 10 min, 1 h and 24 h blood was collected via the facial vein. Serum was isolated by centrifugation at 900 g for 10 min for two times and stored at −80 °C. Platinum content was detected by ICP-MS measurements, using an Agilent 7800 (Agilent Technologies, Tokyo, Japan) equipped with an Agilent SPS 4 autosampler (Agilent Technologies, Tokyo, Japan) and a MicroMist nebulizer. The Agilent MassHunter software package (Workstation Software, Version C.01.04, 2018) was used for data evaluation. The ICP-MS operation parameters are given in Table S1. ^† Salicylic acid was extracted and detected as described above.

[5] = Preliminary oral tolerability experiments in tumor-free mice; format: in vivo; settings: 52.8 mg kg^−1 p.o.
Source text: It is well known that COX-2 is involved in the paracrine signaling between immune cells, resulting in a pro-tumorigenic tumor microenvironment.[10,33] Consequently, we got interested in the impact of the Asa ligand on the anticancer activity of the drugs in vivo. Therefore, we chose immune-competent murine colon cancer CT26 allografts as test system, which were characterized by high COX-2 expression (Fig. S4 ^†). […] Thus, the experiment was stopped on day 19 due to a distinct drop in body weight in these animals. As Asa is clinically applied p.o., we tested the efficacy of OxAsaOAc and asplatin in an oral application setting. […] For the therapy experiment, the animals were treated with OxAsaOAc and asplatin for five subsequent days over two weeks. […] Consequently, we concluded that the drug doses reaching the tumor in these therapy settings were insufficient, which prompted us to aim for carrier systems with enhanced tumor-targeting properties.

HCT116 = assay: MTT assay, 72 h, HCT116; format: cell-based; settings: 72 h treatment, mean ± SD
Protocol: as §2, §3

CT26 (murine) = assay: MTT assay, 72 h, CT26; format: cell-based; settings: 72 h treatment, mean ± SD
Protocol: as §2, §3

SW480 = assay: MTT assay, 72 h, SW480; format: cell-based; settings: 72 h treatment, mean ± SD
Protocol: as §2, §3

[6] = tested on: colorectal cancer cell line panel; assay: MTT assays, 72 h, whole panel comparison; format: cell-based; settings: in most cell lines of the panel
Protocol: All cell cultures were grown at 37 °C in a humidified atmosphere containing 5% CO2. HCT116, RKO and HT-29 cells were cultured in McCoy's 5A Modified Media (Sigma-Aldrich, St. Louis, MO, USA) supplemented with 10% heat-inactivated fetal calf serum (FCS, PAA, Linz, Austria) and 2 mM glutamine (Sigma-Aldrich, St. Louis, MO, USA). The murine (Balb/c) colon cancer cell model CT26 (purchased from American Type Culture Collection, Manassas, VA, USA) were cultured in DMEM/F12 supplemented with 10% fetal calf serum (FCS). SW480 and Caco-2 cells were cultured in MEME media supplemented with 10% and 20% FCS, respectively. All cell culture media and reagents were purchased from Sigma-Aldrich Austria. […]
Depending on their proliferation rate, cells were seeded at a density of 3500–5000 cells per well in 96-well microtiter plates and allowed to adhere overnight. […] Cell viability was determined using the 3-(4,5-dimethylthiazol-2-yl)-2,5-diphenyltetrazolium bromide (MTT) assay (EZ4U, Biomedia, Vienna, Austria) according to the manufacturer's recommendation. Depending on the metabolic capacity, the cell lines were incubated between one and three hours at 37 °C and subsequently absorbance was measured at 450 nm (620 nm as a reference) with a Tecan Reader infinite® M200Pro (Tecan Group Ltd, Switzerland). Data were analyzed using Graph Pad prism (version 8.0.1) by using the point-to-point function. […]

HT-29 = assay: MTT assay, 72 h, HT-29; format: cell-based; settings: for IC50: HT-29, MTT, 72 h treatment, mean ± SD
Protocol: as §2, §3

CT26 allografts [7] = assay: Anticancer activity i.v. in CT26-bearing mice; format: in vivo, Balb/c mice; settings: i.v., 4-times over 2 weeks, doses equimolar to 9 mg kg^−1 oxaliplatin
Protocol: as §4
(§5) CT26 cells (5 × 10^5 cells in 50 μl serum-free medium) were injected s.c. into the right flank of female BALB/c mice. […] Asa was treated orally using 50 mg kg^−1 in 5% DMSO/0.9% NaCl. Every day, the animals were monitored for the overall health conditions. Additionally, tumor size was measured. In case of a decreased body weight of ∼20% or ulcerated tumors, animals were sacrificed by cervical dislocation and tumors as well as organs were collected.

CT26 allografts [8] = tested on: CT26 allografts; parameters: method as in not given; settings: reported MTD; ref not given; cited from earlier work
CT26 allografts [9] = format: in vivo; settings: oxaliplatin 9 mg kg^−1 i.v.
Protocol: as §4, §5

CC(=O)Oc1ccccc1C(=O)[O][Pt-2]12([O]C(C)=O)([NH2+][C@@H]3CCCC[C@H]3[NH2+]1)[O]C(=O)C(=O)[O]2 [OxAsaOAc, (OC-6-44)-acetato(2-acetoxybenzoato)[(1R,2R)-1,2-cyclohexanediamino]oxalatoplatinum(IV)]
Stability in aqueous solution [1]: high stability | Intact complex after 6 h ([2]; 6 h): 92% | Intact complex after 24 h ([2]; 24 h): 53% | IC50 (RKO): 4.3 ± 0.4 µM | Impact on tumor growth (CT26 allografts [3]): none of the drugs had any impact on tumor growth | IC50 (HCT116/OxR): 42.8 ± 4.3 µM | IC50 (Caco-2): 17.9 ± 2.1 µM | Binding to albumin (or any other protein) (albumin): < 5% | Free salicylic acid in serum, share of administered dose ([4]; 10 min after single i.v. dose equimolar to 9 mg kg^−1 oxaliplatin): < 5 mol% | Free salicylic acid in serum, share of administered dose ([4]; 1 h after single i.v. dose equimolar to 9 mg kg^−1 oxaliplatin): < 5 mol% | Salicylic acid level in serum ([4]; 24 h after single i.v. dose equimolar to 9 mg kg^−1 oxaliplatin, below LOD): < 3 µM | Tolerability [5]: well tolerable | IC50 (HCT116): 9.9 ± 1.5 µM | IC50 (CT26 (murine)): 12.8 ± 0.8 µM | IC50 (SW480): 11.2 ± 1.3 µM | Fold more active than Ox(OAc)2 [6]: about 2 fold | Fold higher activity than Ox(OAc)2 (HT-29; HT29 cells): 4 fold | IC50 (HT-29): 32.7 ± 5.5 µM | Tolerability (body weight) (CT26 allografts [7]): well tolerated | Anticancer activity (tumor growth, overall survival) (CT26 allografts [7]; CT26): significant impact on both tumor growth as well as overall survival

O=C1[O][Pt]2([NH][C@@H]3CCCC[C@H]3[NH]2)[O]C1=O [Oxaliplatin, oxaliplatin]
MTD (CT26 allografts [8]): 9 mg/kg | IC50 (RKO): 0.4 ± 0.04 µM | IC50 (HCT116/OxR): 27.8 ± 5.2 µM | IC50 (HCT116): 0.8 ± 0.1 µM | IC50 (CT26 (murine)): 1.8 ± 0.2 µM | IC50 (SW480): 1 ± 0.2 µM | Response of tumor model (tumor growth) (CT26 allografts [9]): responsiveness | IC50 (HT-29): 5.3 ± 1.2 µM
